Measured values reported in US12473262B2, “Aryl hydrocarbon receptor activators” (Oregon State University, priority 2019, dated 2025).

Molecular target: aryl hydrocarbon receptor (AhR) (Mus musculus (Mouse), UniProt P30561)
Test: AhR ligand screening: AhRE-luciferase reporter in transfected Hepa1 cells
Type: cell-based
Settings: for Fold @ 1 nM: fold change of luciferase expression at 1 nM test compound relative to vehicle (0.1% DMSO); for Fold @ 100 nM: fold change of luciferase expression at 100 nM test compound relative to vehicle (0.1% DMSO); for Fold @ 10 uM: fold change of luciferase expression at 10 uM test compound relative to vehicle (0.1% DMSO); for Fold relative to benchmark @ 100 nM: luciferase expression at 100 nM test compound relative to 100 nM benchmark compound 11-cl-BBQ
Summary of the method: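 Values are fold luciferase induction relative to vehicle (0.1% DMSO), read by luminometry of lysates from Hepa1 cells carrying an AhRE-driven luciferase reporter. Cells were seeded at 1×10^4 per well, grown overnight and treated with compound before lysis.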

aryl hydrocarbon receptor (AhR), sequence (P30561 10-805): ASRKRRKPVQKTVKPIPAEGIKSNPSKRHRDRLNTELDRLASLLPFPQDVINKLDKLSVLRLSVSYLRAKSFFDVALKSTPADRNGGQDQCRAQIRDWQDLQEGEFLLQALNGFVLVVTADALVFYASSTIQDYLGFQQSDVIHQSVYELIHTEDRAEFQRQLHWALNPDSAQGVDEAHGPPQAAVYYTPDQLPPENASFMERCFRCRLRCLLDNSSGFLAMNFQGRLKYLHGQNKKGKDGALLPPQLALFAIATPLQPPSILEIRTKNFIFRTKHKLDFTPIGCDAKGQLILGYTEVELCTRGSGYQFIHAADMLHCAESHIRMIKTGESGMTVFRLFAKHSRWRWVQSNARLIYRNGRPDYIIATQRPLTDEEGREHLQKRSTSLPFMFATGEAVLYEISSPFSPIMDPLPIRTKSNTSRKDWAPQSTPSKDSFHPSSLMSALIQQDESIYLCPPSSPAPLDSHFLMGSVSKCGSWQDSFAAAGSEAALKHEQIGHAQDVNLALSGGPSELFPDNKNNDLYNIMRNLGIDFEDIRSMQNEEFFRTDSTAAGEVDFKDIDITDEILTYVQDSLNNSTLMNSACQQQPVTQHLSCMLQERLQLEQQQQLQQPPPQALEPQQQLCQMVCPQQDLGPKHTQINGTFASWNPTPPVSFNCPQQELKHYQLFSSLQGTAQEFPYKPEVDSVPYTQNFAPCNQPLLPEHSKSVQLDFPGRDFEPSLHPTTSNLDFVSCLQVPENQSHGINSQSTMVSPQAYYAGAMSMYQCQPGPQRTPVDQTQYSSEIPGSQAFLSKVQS
aryl hydrocarbon receptor (AhR), sequence (P53762 whole entry partner): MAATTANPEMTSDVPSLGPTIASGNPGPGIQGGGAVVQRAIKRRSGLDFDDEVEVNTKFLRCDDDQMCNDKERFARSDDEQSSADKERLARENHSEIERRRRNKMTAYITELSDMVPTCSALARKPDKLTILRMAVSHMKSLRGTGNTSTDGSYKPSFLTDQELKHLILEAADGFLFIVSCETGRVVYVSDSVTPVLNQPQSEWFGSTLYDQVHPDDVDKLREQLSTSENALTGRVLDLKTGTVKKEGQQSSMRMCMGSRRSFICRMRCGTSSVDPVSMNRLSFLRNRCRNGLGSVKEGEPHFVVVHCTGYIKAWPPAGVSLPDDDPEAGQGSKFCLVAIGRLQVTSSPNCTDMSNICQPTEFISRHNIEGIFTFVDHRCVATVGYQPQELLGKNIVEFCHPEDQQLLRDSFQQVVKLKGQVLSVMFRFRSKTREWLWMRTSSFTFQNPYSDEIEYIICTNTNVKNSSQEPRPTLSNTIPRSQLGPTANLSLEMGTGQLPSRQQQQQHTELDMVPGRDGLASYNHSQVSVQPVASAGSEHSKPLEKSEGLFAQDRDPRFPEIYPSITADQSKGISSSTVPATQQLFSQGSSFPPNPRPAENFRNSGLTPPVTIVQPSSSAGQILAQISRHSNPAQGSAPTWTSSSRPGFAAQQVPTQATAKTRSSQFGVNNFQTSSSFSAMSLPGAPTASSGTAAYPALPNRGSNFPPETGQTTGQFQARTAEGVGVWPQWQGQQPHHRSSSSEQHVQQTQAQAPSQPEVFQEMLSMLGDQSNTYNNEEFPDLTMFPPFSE

Row | Fold @ 1 nM [fold] | Fold @ 100 nM [fold] | Fold @ 10 uM [fold] | Fold relative to benchmark @ 100 nM [fold] | SMILES
1 | 1 | 12 | 68 | 0.41 | O=C(c1ccc(F)c(F)c1)n1c(-c2ccc(Cl)c3ccccc23)nc2cc(Cl)ccc21 [Compound 869]
2 | 1 | 9 | 74 | 0.31 | O=C(c1ccc(F)c(F)c1)n1c(-c2ccc(Cl)c3ccccc23)nc2ccc(Cl)cc21 [Compound 870]
3 | 1 | 1 | 12 | 0.02 | Fc1cccc(F)c1Cn1c(-c2cccc3ccccc23)nc2cc(Cl)ccc21 [Compound 871]
4 | 1 | 7 | 52 | 0.13 | N#Cc1ccc(C(=O)c2c[nH]c3ccc(Cl)cc23)cc1 [Compound 874]
5 | 1 | 3 | 48 | 0.06 | O=C(c1ccc(F)c(F)c1)n1c(-c2cccc(C(F)(F)F)c2Cl)nc2cc(Cl)ccc21 [Compound 875]
6 | 1 | 3 | 32 | 0.06 | Clc1ccc2c(c1)nc(-c1cccc3ccccc13)n2Cc1ccncc1 [Compound 876]
7 | 1 | 3 | 42 | 0.06 | Clc1ccc2nc(-c3cccc4ccccc34)n(Cc3ccncc3)c2c1 [Compound 877]
8 | 1 | 2 | 18 | 0.04 | O=C(c1ccc(OC(F)(F)F)cc1)c1c[nH]c2ccc(Cl)cc12 [Compound 881]
9 | 1 | 1 | 2 | 0.02 | Cc1ccc(C(=O)c2c[nH]c3ccc(Cl)cc23)cc1 [Compound 882]
10 | 1 | 1 | 2 | 0.02 | O=C(c1ccc(C(F)(F)F)cc1)c1c[nH]c2ccc(Cl)cc12 [Compound 883]
11 | 1 | 1 | 14 | 0.02 | Fc1ccc(Cn2c(-c3cccc4ccccc34)nc3cc(Cl)ccc32)cc1F [Compound 887]
12 | 1 | 1 | 9 | 0.02 | Fc1ccc(Cn2c(-c3cccc4ccccc34)nc3ccc(Cl)cc32)cc1F [Compound 888]
13 | 1 | 1 | 10 | 0.02 | O=C(c1c[nH]c2ccc(Cl)cc12)C1CCCCC1 [Compound 895]
14 | 1 | 2 | 11 | 0.07 | COC(=O)c1ccc2c(c1)nc(-c1cccc3ccccc13)n2C(=O)c1ccc(Cl)cc1Cl [Compound 1328]
15 | 1 | 1 | 1 | 0.03 | O=C(c1ccc2c(c1)nc(-c1cccc3ccccc13)n2Cc1ccc(F)c(F)c1)N1CCOCC1 [Compound 1329]
16 | 1 | 1 | 1 | 0.03 | O=C(c1ccc2nc(-c3cccc4ccccc34)n(Cc3ccc(F)c(F)c3)c2c1)N1CCOCC1 [Compound 1330]
17 | 1 | 1 | 6 | 0.03 | N#Cc1ccc(S(=O)(=O)n2c(-c3cccc4ccccc34)nc3cc(C(=O)N4CCCCC4)ccc32)cc1 [Compound 1336]
18 | 1 | 1 | 8 | 0.03 | N#Cc1ccc(S(=O)(=O)n2c(-c3cccc4ccccc34)nc3ccc(C(=O)N4CCCCC4)cc32)cc1 [Compound 1337]
19 | 1 | 1 | 2 | 0.03 | COC(=O)c1ccc2c(c1)nc(-c1cccc3ccccc13)n2Cc1ccc(F)c(F)c1 [Compound 1338]
20 | 1 | 1 | 4 | 0.03 | COC(=O)c1ccc2nc(-c3cccc4ccccc34)n(Cc3ccc(F)c(F)c3)c2c1 [Compound 1339]

Row | Fold @ 1 nM [fold] | Fold @ 100 nM [fold] | Fold @ 10 uM [fold] | Fold relative to benchmark @ 100 nM [fold] | SMILES
21 | 1 | 1 | 8 | 0.03 | O=C(c1ccc2c(c1)nc(-c1cccc3ccccc13)n2S(=O)(=O)c1ccc2ccccc2c1)N1CCCCC1 [Compound 1340]
22 | 1 | 1 | 5 | 0.03 | O=C(c1ccc2nc(-c3cccc4ccccc34)n(S(=O)(=O)c3ccc4ccccc4c3)c2c1)N1CCCCC1 [Compound 1341]
23 | 1 | 2 | 2 | 0.07 | COC(=O)c1ccc2c(c1)nc(-c1cccc3ccccc13)n2C(=O)c1ccc(OC(F)(F)F)cc1 [Compound 1342]
24 | 1 | 1 | 1 | 0.03 | O=C(c1ccc2c(c1)nc(-c1cccc3ccccc13)n2S(=O)(=O)c1cccc(F)c1)N1CCOCC1 [Compound 1356]
25 | 1 | 1 | 1 | 0.03 | O=C(c1ccc2nc(-c3cccc4ccccc34)n(S(=O)(=O)c3cccc(F)c3)c2c1)N1CCOCC1 [Compound 1357]
26 | 1 | 1 | 2 | 0.03 | O=C(c1ccc2nc(-c3cccc4ccccc34)n(S(=O)(=O)c3ccc(Cl)cc3)c2c1)N1CCOCC1 [Compound 1359]
27 | 1 | 2 | 18 | 0.07 | COC(=O)c1ccc2[nH]c(-c3cccc4ccccc34)nc2c1 [Compound 1360]
28 | 1 | 2 | 2 | 0.07 | COC(=O)c1ccc2c(c1)nc(-c1cccc3ccccc13)n2S(=O)(=O)c1ccc(C#N)cc1 [Compound 1361]
29 | 5 | 3 | 18 | 0.1 | COC(=O)c1ccc2nc(-c3cccc4ccccc34)n(S(=O)(=O)c3ccc(C#N)cc3)c2c1 [Compound 1362]
30 | 1 | 1 | 4 | 0.03 | O=C(c1ccc2c(c1)nc(-c1cccc3ccccc13)n2S(=O)(=O)c1ccc2ccccc2c1)N1CCOCC1 [Compound 1363]
31 | 1 | 1 | 3 | 0.03 | CN1CCN(C(=O)c2ccc3c(c2)nc(-c2cccc4ccccc24)n3Cc2ccc(F)c(F)c2)CC1 [Compound 1364]
32 | 1 | 1 | 2 | 0.03 | CN1CCN(C(=O)c2ccc3nc(-c4cccc5ccccc45)n(Cc4ccc(F)c(F)c4)c3c2)CC1 [Compound 1365]
33 | 1 | 1 | 10 | 0.03 | O=C(c1ccc2c(c1)nc(-c1cccc3ccccc13)n2S(=O)(=O)c1ccc(Cl)cc1)N1CCCCC1 [Compound 1366]
34 | 1 | 1 | 3 | 0.03 | O=C(c1ccc2nc(-c3cccc4ccccc34)n(S(=O)(=O)c3ccc(Cl)cc3)c2c1)N1CCCCC1 [Compound 1367]
35 | 1 | 2 | 2 | 0.07 | O=C(c1ccc2c(c1)nc(-c1cccc3ccccc13)n2S(=O)(=O)c1cccc(F)c1)N1CCCCC1 [Compound 1368]
36 | 1 | 1 | 2 | 0.03 | O=C(c1ccc2nc(-c3cccc4ccccc34)n(S(=O)(=O)c3cccc(F)c3)c2c1)N1CCCCC1 [Compound 1369]
37 | 1 | 1 | 4 | 0.03 | O=C(c1ccc2nc(-c3cccc4ccccc34)n(S(=O)(=O)c3ccc(C(F)(F)F)cc3)c2c1)N1CCOCC1 [Compound 1370]
38 | 1 | 2 | 13 | 0.07 | COC(=O)c1ccc2nc(-c3cccc4ccccc34)n(S(=O)(=O)c3ccc4ccccc4c3)c2c1 [Compound 1384]
39 | 1 | 2 | 5 | 0.07 | COC(=O)c1ccc2c(c1)nc(-c1cccc3ccccc13)n2S(=O)(=O)c1ccc(Cl)cc1 [Compound 1385]
